Measured values: the supplement of paper PMC8671470
Counter-ions that a name gives are not always drawn.

Legend:
Conditions in all cases: 72 h
Mono-Mac-6 [1] = assay: cell viability (% survival relative to DMSO control, bortezomib = 0%); higher = less cytotoxic
How it was run: (§1)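 Percent survival is reported as the mean of duplicate wells. Cells from 10 AML and 5 CML lines were plated in 384-well plates containing compounds at 1, 10, 100, 1000 or 10000 nM and kept for 72 h at 37 °C in 5% CO2. Readout used CellTiter-Glo luminescence, scaled so that vehicle equals 100% and a 10 µM positive control equals 0%.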

NOMO-1 [2] = assay: as above
How it was run: as §1

THP-1 [3] = assay: as above
How it was run: as §1

ML-2 [4] = assay: as above
How it was run: as §1

KCL-22 [5] = assay: as above
How it was run: as §1

BV-173 [6] = assay: as above
How it was run: as §1

HEL [7] = assay: as above
How it was run: as §1

KU-812 [8] = assay: as above
How it was run: as §1

K-562 [9] = assay: as above
How it was run: as §1

KG-1 [10] = assay: as above
How it was run: as §1

LAMA-84 [11] = assay: as above
How it was run: as §1

HL-60 [12] = assay: as above
How it was run: as §1

MV4-11 [13] = assay: as above
How it was run: as §1

MOLM-13 [14] = assay: as above
How it was run: as §1

SHI-1 [15] = assay: as above
How it was run: as §1

Mono-Mac-6 [16] = test system: Mono-Mac-6
How it was run: (§2)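 For the IC50, dose–response curves were fitted with a log-logistic model. The data came from fifteen myeloid leukaemia cell lines grown in RPMI 1640 at densities in the linear growth range and incubated in 384-well plates for 72 h at 37 °C under 5% CO2. Doses were five tenfold steps from 1 to 10,000 nM in duplicate, and luminescent ATP viability was normalised to vehicle and to a positive control at 10 µM before four-parameter fitting.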

NOMO-1 [17] = test system: NOMO-1
How it was run: as §2

THP-1 [18] = test system: THP-1
How it was run: as §2

ML-2 [19] = test system: ML-2
How it was run: as §2

KCL-22 [20] = test system: KCL-22
How it was run: as §2

BV-173 [21] = test system: BV-173
How it was run: as §2

HEL [22] = test system: HEL
How it was run: as §2

KU-812 [23] = test system: KU-812
How it was run: as §2

K-562 [24] = test system: K-562
How it was run: as §2

KG-1 [25] = test system: KG-1
How it was run: as §2

LAMA-84 [26] = test system: LAMA-84
How it was run: as §2

HL-60 [27] = test system: HL-60
How it was run: as §2

MV4-11 [28] = test system: MV4-11
How it was run: as §2

MOLM-13 [29] = test system: MOLM-13
How it was run: as §2

SHI-1 [30] = test system: SHI-1
How it was run: as §2

O=C(Oc1ccc([N+](=O)[O-])cc1)N1CCC(C(O)(c2ccc3c(c2)OCO3)c2ccc3c(c2)OCO3)CC1 [JZL184]
cell viability [%]
Conditions	1 nM	10 nM	100 nM	1000 nM	10000 nM
BV-173 [6]	95.2	96.5	90.7	92.9	69.4
HEL [7]	97.3	114	120	90.6	97.4
HL-60 [12]	96.9	98.8	105	103	101
K-562 [9]	92.8	110	106	87	95.7
KCL-22 [5]	90.8	108	112	105	92.3
KG-1 [10]	101	107	100	104	94
KU-812 [8]	101	102	112	90.5	85.8
LAMA-84 [11]	97	102	95.9	89.7	96.6
ML-2 [4]	102	112	114	104	98.9
MOLM-13 [14]	92.2	100	117	107	92.9
MV4-11 [13]	94.9	95.7	98.9	94.5	88.5
Mono-Mac-6 [1]	90.2	111	104	103	92.3
NOMO-1 [2]	101	99.5	102	102	95.2
SHI-1 [15]	110	97.9	129	103	90.7
THP-1 [3]	97.2	103	95.4	101	96.2

Conditions	IC50 (cell viability) [µM]
BV-173 [21]	> 10
HEL [22]	> 10
HL-60 [27]	> 10
K-562 [24]	> 10
KCL-22 [20]	> 10
KG-1 [25]	> 10
KU-812 [23]	> 10
LAMA-84 [26]	> 10
ML-2 [19]	> 10
MOLM-13 [29]	> 10
MV4-11 [28]	> 10
Mono-Mac-6 [16]	> 10
NOMO-1 [17]	> 10
SHI-1 [30]	> 10
THP-1 [18]	> 10

C=C1C(=O)O[C@H](CCCCCCCC)[C@H]1C(=O)O [C75]
cell viability [%]
Conditions	1 nM	10 nM	100 nM	1000 nM	10000 nM
BV-173 [6]	106	94	109	107	105
HEL [7]	101	95.7	105	111	121
HL-60 [12]	89.1	80.8	106	86	120
K-562 [9]	107	98.3	101	108	111
KCL-22 [5]	112	86.8	108	110	134
KG-1 [10]	102	81.1	112	115	114
KU-812 [8]	95	97.6	105	102	106
LAMA-84 [11]	92.2	102	101	104	106
ML-2 [4]	115	90.1	108	110	112
MOLM-13 [14]	102	95.2	106	99.3	137
MV4-11 [13]	106	98.1	103	85.9	116
Mono-Mac-6 [1]	98.1	99.9	103	94.4	98.9
NOMO-1 [2]	108	99.7	113	100	109
SHI-1 [15]	105	98.5	108	100	100
THP-1 [3]	111	94.7	111	108	102

Conditions	IC50 (cell viability) [µM]
BV-173 [21]	> 10
HEL [22]	> 10
HL-60 [27]	> 10
K-562 [24]	> 10
KCL-22 [20]	> 10
KG-1 [25]	> 10
KU-812 [23]	> 10
LAMA-84 [26]	> 10
ML-2 [19]	> 10
MOLM-13 [29]	> 10
MV4-11 [28]	> 10
Mono-Mac-6 [16]	> 10
NOMO-1 [17]	> 10
SHI-1 [30]	> 10
THP-1 [18]	> 10

CC(C)(Cc1ccccc1)NCC(O)c1ccc(O)c(NS(C)(=O)=O)c1 (stereo not given) [Zinterol hydrochloride]
cell viability [%]
Conditions	1 nM	10 nM	100 nM	1000 nM	10000 nM
BV-173 [6]	113	93.6	106	87	121
HEL [7]	77.8	101	103	110	93.5
HL-60 [12]	107	113	85	87.7	112
K-562 [9]	92.5	107	99.9	107	111
KCL-22 [5]	96.1	99.4	98.2	103	95.6
KG-1 [10]	118	94.5	99.6	87.9	102
KU-812 [8]	113	93.9	106	87.1	97.6
LAMA-84 [11]	106	99.1	112	96.6	101
ML-2 [4]	95.4	93.3	93	93.9	103
MOLM-13 [14]	90.9	86.8	82.3	90.7	98
MV4-11 [13]	89.7	79.9	84.5	74.3	88.4
Mono-Mac-6 [1]	72.2	51.5	49	48.6	50.1
NOMO-1 [2]	107	107	101	98.6	97.4
SHI-1 [15]	111	112	103	110	120
THP-1 [3]	109	101	111	103	102

Conditions	IC50 (cell viability) [µM]
BV-173 [21]	> 10
HEL [22]	> 10
HL-60 [27]	> 10
K-562 [24]	> 10
KCL-22 [20]	> 10
KG-1 [25]	> 10
KU-812 [23]	> 10
LAMA-84 [26]	> 10
ML-2 [19]	> 10
MOLM-13 [29]	> 10
MV4-11 [28]	> 10
Mono-Mac-6 [16]	0.0976
NOMO-1 [17]	> 10
SHI-1 [30]	> 10
THP-1 [18]	> 10
